# Source: ChEMBL document CHEMBL4376882, “Photodynamic Therapy for ras-Driven Cancers: Targeting G-Quadruplex RNA Structures with Bifunctional Alkyl-Modified Porphyrins” (J Med Chem, 2020)
# Calls of active or inactive are those of the source. The rule behind the calls is not given here.
# Tests used:
# PANC-1 [1] = assay: Induction of ROS generation in human PANC1 cells cleavage of CM-H2DCFDA to CM-H2DCF by intracellular esterase by measuring green fluorescence emission incubated for 16 hrs in presence of NAC followed by 7.2J/cm2 photoirradiation and subsequent compound washout measured after 40 mins by CM-H2DCFDA staining-based FACSCalibur flow cytometry; format: functional, cell-based
# [2] = biological target: GTPase NRas (Homo sapiens) (UniProt P01111); assay: Inhibition of NRAS in human PANC1 cells assessed as downregulation of NRAS expression at 15 nM after 4 hrs by Western blot analysis; format: cell-based
# Sequence of GTPase NRas (Homo sapiens) (P01111 whole entry): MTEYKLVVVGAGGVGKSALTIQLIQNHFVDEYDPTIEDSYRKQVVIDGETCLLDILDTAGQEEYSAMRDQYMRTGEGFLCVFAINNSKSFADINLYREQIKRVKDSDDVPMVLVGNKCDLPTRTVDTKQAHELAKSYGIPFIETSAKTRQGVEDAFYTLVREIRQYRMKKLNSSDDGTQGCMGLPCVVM
# [3] = Toxicity in SCID mouse xenografted with human PANC1 cells assessed as tissue damage around the irradiated tumor at 3 mg/kg administered intratumorally after 2 hrs photoirradiated by diode laser at 193 J/cm2; format: organism-based; conditions: in vivo, other
# PANC-1 [4] = assay: Induction of apoptosis in human PANC1 cells assessed as late apoptotic cells at 5 nM and photoirradiated at 7.2 J/cm2 measured after 6 to 24 hrs in presence of NAC by annexin-V-propidium iodide staining based FACScalibur flow cytometry analysis (reference value: 1.3 %); format: functional
# PANC-1 [5] = assay: Induction of apoptosis in human PANC1 cells assessed as viable cells at 15 nM and photoirradiated at 7.2 J/cm2 measured after 6 to 24 hrs in presence of NAC by annexin-V-propidium iodide staining based FACScalibur flow cytometry analysis (reference value: 94.5 %); format: functional; conditions: PANC-1, light or radiation study, read-out: Activity
smiles,measurement,setting,value
CCCCCCCCCCCCCC[n+]1ccc(-c2c3nc(c(-c4cc[n+](C)cc4)c4ccc([nH]4)c(-c4cc[n+](C)cc4)c4nc(c(-c5cc[n+](C)cc5)c5ccc2[nH]5)C=C4)C=C3)cc1.[I-].[I-].[I-].[I-],Activity,PANC-1 [1],inactive
same,inhibition,[2],inactive
same,Activity,[3],Non-Toxic
same,Activity,PANC-1 [4],1.1%
same,viability at 0.015 µM,PANC-1 [5],89.4%
